Measured values as given in patent US8952020B2, “Optically active pyrazolylaminoquinazoline, and pharmaceutical compositions and methods of use thereof” (Ambit Biosciences Corp., priority 2010, dated 2015).

Legend:
CYP2B6 = target: T1, CYP2B6 (Homo sapiens, UniProt P20813); experiment: CYP450 inhibition in human liver microsomes
T1 sequence (P20813 1-491): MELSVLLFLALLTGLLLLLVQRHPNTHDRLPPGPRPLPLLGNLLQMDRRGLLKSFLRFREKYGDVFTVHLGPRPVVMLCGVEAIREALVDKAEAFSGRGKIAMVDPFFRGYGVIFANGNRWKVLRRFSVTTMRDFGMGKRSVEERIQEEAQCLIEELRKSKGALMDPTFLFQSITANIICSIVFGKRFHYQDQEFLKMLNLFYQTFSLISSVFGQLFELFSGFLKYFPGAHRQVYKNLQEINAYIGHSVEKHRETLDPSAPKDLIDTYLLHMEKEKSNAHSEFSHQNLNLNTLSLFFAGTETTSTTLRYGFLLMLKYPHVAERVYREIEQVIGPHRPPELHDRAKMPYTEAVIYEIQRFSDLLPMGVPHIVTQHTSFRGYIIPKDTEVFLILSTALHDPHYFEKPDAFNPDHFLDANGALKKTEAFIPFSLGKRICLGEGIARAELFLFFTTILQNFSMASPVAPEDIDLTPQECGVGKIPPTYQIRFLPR

CYP2D6 = CYP2D6 (Homo sapiens, UniProt P10635); experiment: CYP450 inhibition in human liver microsomes
Chain of CYP2D6 (P10635 whole entry): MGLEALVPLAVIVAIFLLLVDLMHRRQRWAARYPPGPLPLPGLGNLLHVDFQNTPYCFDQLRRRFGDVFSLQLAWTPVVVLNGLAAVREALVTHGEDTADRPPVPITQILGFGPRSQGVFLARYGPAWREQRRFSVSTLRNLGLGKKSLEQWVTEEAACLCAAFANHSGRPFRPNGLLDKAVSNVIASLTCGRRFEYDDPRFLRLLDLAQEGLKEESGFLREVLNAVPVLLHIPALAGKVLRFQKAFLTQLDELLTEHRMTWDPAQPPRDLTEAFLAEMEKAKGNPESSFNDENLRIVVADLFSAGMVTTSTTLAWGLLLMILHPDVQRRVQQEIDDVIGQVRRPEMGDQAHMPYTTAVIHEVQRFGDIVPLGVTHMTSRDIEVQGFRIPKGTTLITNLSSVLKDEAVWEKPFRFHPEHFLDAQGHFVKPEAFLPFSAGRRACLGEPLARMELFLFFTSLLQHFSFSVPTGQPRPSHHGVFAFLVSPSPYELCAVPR

CYP2C8 = target: T2, CYP2C8 (Homo sapiens, UniProt P10632); experiment: CYP450 inhibition in human liver microsomes
T2 sequence (P10632 1-490): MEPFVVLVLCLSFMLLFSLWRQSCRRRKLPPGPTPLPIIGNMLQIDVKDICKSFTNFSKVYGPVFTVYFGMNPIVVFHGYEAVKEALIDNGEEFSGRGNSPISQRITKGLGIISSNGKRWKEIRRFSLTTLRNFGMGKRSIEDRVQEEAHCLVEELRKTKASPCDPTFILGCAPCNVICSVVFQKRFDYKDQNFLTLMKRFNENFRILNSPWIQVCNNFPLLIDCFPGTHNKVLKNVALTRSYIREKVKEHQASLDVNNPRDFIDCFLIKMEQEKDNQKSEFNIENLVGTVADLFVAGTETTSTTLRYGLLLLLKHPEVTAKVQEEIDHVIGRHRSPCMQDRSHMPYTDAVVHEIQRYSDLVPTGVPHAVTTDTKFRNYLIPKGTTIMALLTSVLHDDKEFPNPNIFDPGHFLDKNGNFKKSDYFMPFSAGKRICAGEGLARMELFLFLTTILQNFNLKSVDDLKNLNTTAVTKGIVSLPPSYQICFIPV

[1] = cynomolgus monkey, in vivo
Method: (§1) Three male cynomolgus monkeys were fasted overnight and through four hours postdose. Two 100 μL aliquots of each dosing formulation were taken predose. Three monkeys were given a single gavage dose of a test compound at 10 mg/kg, followed by an approximately 10.0 mL tap water flush of the gavage tube. After a 1 week washout period, two of the three monkeys received a single IV bolus dose of a test compound at 1 mg/kg in a peripheral vein followed by approximate 1.0 mL saline flush.

[2] = tested on: GM-CSFR/JAK2/STAT5 pathway in csTF-1 cells; experiment: csTF-1 cell-based reporter assay; conditions: Homo sapiens, GM-CSF at 2 ng/mL, beta-lactamase reporter, read-out: EC50, inhibition of GM-CSF stimulated reporter activity
Method: After 16 hr incubation, cells were seeded at 2×10^5 cell/well in 50 μL volume, into Costar, clear bottom, 96-well assay plates. Serial dilutions of compounds were added to the plates with final DMSO concentration at 0.5% and GM-CSF at 2 ng/mL and the plates were then incubated at 30° C. and 5% CO2 for 4 hrs. The plates were brought to room temperature before adding Substrate Mixture according to manufacturer's protocol (Invitrogen, Catalog #K1085). The assay plates containing the substrate mixture were incubated in the dark at room temperature for 2 hrs. Blue and green fluorescence were measured with excitation at 409 nm and emission at 460 nm (for blue) and excitation at 409 nm and emission at 530 nm (for green) using Spectra Max Gemini EM.

CYP1A2 = target: T3, CYP1A2 (Homo sapiens, UniProt P05177); experiment: CYP450 inhibition in human liver microsomes
T3 sequence (P05177 1-516): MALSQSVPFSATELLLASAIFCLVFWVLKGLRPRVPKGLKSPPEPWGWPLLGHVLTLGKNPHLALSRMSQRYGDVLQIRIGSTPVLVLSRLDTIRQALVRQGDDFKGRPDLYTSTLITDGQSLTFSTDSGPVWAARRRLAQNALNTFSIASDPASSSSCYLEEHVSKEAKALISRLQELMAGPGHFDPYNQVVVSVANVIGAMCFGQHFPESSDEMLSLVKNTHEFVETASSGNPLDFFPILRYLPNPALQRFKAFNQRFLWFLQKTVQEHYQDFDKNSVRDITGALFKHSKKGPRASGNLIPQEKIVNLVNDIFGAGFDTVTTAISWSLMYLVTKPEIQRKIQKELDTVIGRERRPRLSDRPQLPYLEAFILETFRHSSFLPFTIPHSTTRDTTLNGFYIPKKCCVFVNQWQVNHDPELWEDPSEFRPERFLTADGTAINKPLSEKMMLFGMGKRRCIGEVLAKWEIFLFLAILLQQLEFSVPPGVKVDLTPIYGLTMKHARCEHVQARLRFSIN

in vivo = conditions: male, cynomolgus monkey
Method: as §1

melatonin MT = target: T4, melatonin MT (Homo sapiens, UniProt P48039); experiment: Melatonin MT GTPγS binding assay; format: biochemical; conditions: GTPγS bound relative to 2-iodomelatonin response, CHO-K1 cells; read-out: IC50 against melatonin
T4 construct: expressed in transfected cells; host or cells: CHO-K1
T4 sequence (P48039 whole entry): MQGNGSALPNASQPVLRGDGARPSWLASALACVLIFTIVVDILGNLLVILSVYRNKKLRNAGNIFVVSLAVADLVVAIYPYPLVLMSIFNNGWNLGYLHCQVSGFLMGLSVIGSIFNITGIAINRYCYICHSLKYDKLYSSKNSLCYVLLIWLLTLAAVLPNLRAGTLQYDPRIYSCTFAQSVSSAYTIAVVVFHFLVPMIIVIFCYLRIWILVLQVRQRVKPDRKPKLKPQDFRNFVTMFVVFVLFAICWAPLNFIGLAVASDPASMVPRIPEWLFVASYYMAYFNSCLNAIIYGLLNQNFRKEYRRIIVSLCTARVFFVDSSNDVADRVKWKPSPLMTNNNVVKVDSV
Method: […] CHO-K1 cells Chinese hamster ovary were used in this assay. The final DMSO concentration in the assay was about 0.4%. The assay mixture was incubated at 30° C. for 30 min in an incubation buffer (20 mM HEPES, pH 7.4, 100 mM NaCl, 10 mM MgCl2, 1 mM DTT, and 1 mM EDTA). The assay was quantitated by measuring the amount of [^35S]GTPγS bound relative to 2-iodomelatonin response.

[3] = Pharmacokinetic studies in monkeys; conditions: for AUCall / Cl-obs / Cmax: monkeys
Method: as §1

phosphodiesterase PDE5 = target: T5, phosphodiesterase PDE5 (Homo sapiens, UniProt O76074); experiment: Inhibition of phosphodiesterase PDE5; format: biochemical; conditions: human platelets; read-out: IC50 against phosphodiesterase PDE5
T5 construct: from tissue; host or cells: human platelets
Method: Acta 1976, 429, 485-497 and Nicholson et al., Trends Pharmacol. Sci. 1991, 12, 19-27. Human platelets were used in this assay. The final DMSO concentration in the assay was about 1%. The assay was pre-incubated at 25° C. for 15 min and then incubated at 25° C. for 20 min in an incubation buffer (50 mM Tris-HCl, pH 7.5, 5 mM MgCl2). The assay was quantitated by measuring the amount of [^3H]guanosine.

[4] = Racemic administered IV 1 mg/kg, chiral analysis, label = analyte
[5] = Racemic administered PO 10 mg/kg, chiral analysis, label = analyte
[6] = compound administered IV 1 mg/kg, analyte = compound administered
[7] = compound administered PO 10 mg/kg, analyte = compound administered

Row | SMILES | IC50 (CYP2B6) | IC50 (CYP2D6) | IC50 (CYP2C8) | enantiomers present in plasma ([1]; po) | EC50 [2] | IC50 (CYP1A2) | bioavailability (in vivo) | IC50 (melatonin MT) | bioavailability ([3]; male, cynomolgus monkey, in vivo, 10 mg/kg) | AUCall [3, 4] | Cl-obs [3, 4] | AUCall [3, 5] | Cmax [3, 5] | AUCall [3, 6] | Cl-obs [3, 6] | AUCall [3, 7] | Cmax [3, 7] | IC50 (phosphodiesterase PDE5) | share of the Cmax and AUC values determined for the racemic compound ([1]; male)
1 | Cc1cc(Nc2nc([C@@H](O)c3ccc(F)cc3)nc3ccccc23)n[nH]1 [(S)(+)] | > 40 µM | > 40 µM | 22.7 µM | both enantiomers were present in plasma in almost equal proportions | 0.038 µM | < 0.31 µM | 89% | – | – | – | – | – | – | – | – | – | – | – | –
2 | Cc1cc(Nc2nc(C(O)c3ccc(F)cc3)nc3ccccc23)n[nH]1 (racemic) [Racemate] | > 40 µM | > 40 µM | 23.1 µM | – | 0.07 µM | < 0.31 µM | – | 9.75 µM | > 100% | 2.19 µM·h | 21.27 mL/min/kg | 46.20 µM·h | 5.76 µM | 2.19 µM·h | 21.27 mL/min/kg | 46.20 µM·h | 5.76 µM | 9.34 µM | –
3 | Cc1cc(Nc2nc([C@H](O)c3ccc(F)cc3)nc3ccccc23)n[nH]1 [(R)(−)] | > 40 µM | > 40 µM | 26.9 µM | – | 0.075 µM | 1.7 µM | > 100% | – | – | – | – | – | – | – | – | – | – | – | over 85%
